Measurements: patent publication US20260207572A1, “METHODS AND COMPOSITIONS FOR TREATMENT OF SUBJECTS WITH HEPATIC IMPAIRMENTS” (ELEVAR THERAPEUTICS, INC., priority 2022, published 2026)
Where two headings read alike, the source gives them in different places.

Assay: Phase 1 single-dose plasma pharmacokinetics in subjects with normal hepatic function, mild or moderate hepatic impairment
Format: in vivo, human
Settings: for half-life / Tmax / concentration at 0.5 h / concentration at 1 h / concentration at 2 h / concentration at 3 h / concentration at 4 h / concentration at 6 h / concentration at 8 h / concentration at 12 h / concentration at 16 h / concentration at 24 h / concentration at 36 h / concentration at 48 h / AUC(0-t) / AUC(0-inf) / Cmax / Vd/F: human, plasma, po, 200 mg, 200 mg single oral dose
Description: Patients: 27 subjects were enrolled within the following groups based on their Child-Pugh (CP) classification score: • Group 1: Matched-control healthy subjects with normal hepatic function; • Group 2: Subjects with mild hepatic impairment (CP Class A, score of 5 or 6); • Group 3: Subjects with moderate hepatic impairment (CP Class B, score of 7 to 9).
A parallel design strategy was adopted for the hepatic impairment groups. Each matched-control healthy subject (Group 1) was enrolled following the enrollment of a mild and/or moderate hepatic impairment subject and was demographically matched by age (±10 years), BMI (±20%), and sex to the enrolled hepatic impairment subject(s). Subjects with normal hepatic function were not matched to more than 1 hepatically-impaired subject within an impairment group; however, subjects with normal hepatic function could be matched to 1 subject from more than 1 hepatic impairment group.
Other noncompartmental parameters could be reported.
The paired t-test was performed separately for each hepatic impairment group and the corresponding matched healthy controls. Estimates of geometric mean ratios in primary PK parameters between each level of impaired hepatic function versus the matched healthy controls were presented along with the corresponding 90% confidence intervals (CIs) for the geometric mean ratios. The p-value assessing the difference between each impairment group and the healthy control group was presented.
The PK analysis was conducted by Covance Early Clinical Biometrics using WinNonlin Version 8.1.

[1] = Moderate Hepatic Impairment, read-out: Plasma concentration, Arithmetic Mean
[2] = Moderate Hepatic Impairment, read-out: Plasma concentration, Geometric Mean
[3] = Moderate Hepatic Impairment, read-out: Plasma concentration, Median
[4] = Normal Hepatic Function, read-out: Plasma concentration, Arithmetic Mean
[5] = Normal Hepatic Function, read-out: Plasma concentration, Geometric Mean
[6] = Normal Hepatic Function, read-out: Plasma concentration, Median

Structure (SMILES): N#CC1(c2ccc(NC(=O)c3cccnc3NCc3ccncc3)cc2)CCCC1 [Rivoceranib, N-[4-(1-cyanocyclopentyl)phenyl]-2-{[(pyridin-4-yl)methyl]amino} pyridine-3-carboxamide]
- half-life (Moderate Hepatic Impairment, read-out: t1/2, Geometric Mean (converted)): 1100 min
- half-life (Moderate Hepatic Impairment, read-out: t1/2, Median (converted)): 1090 min
- Tmax (Moderate Hepatic Impairment, read-out: tmax, Arithmetic Mean): 2 h
- Tmax (Moderate Hepatic Impairment, read-out: tmax, Geometric Mean): 1.8 h
- Tmax (Moderate Hepatic Impairment, read-out: tmax, Median): 2 h
- concentration at 0.5 h [1]: 115 ng/mL
- concentration at 0.5 h [2]: 57.1 ng/mL
- concentration at 0.5 h [3]: 92.2 ng/mL
- concentration at 1 h [1]: 195 ng/mL
- concentration at 1 h [2]: 140 ng/mL
- concentration at 1 h [3]: 154 ng/mL
- concentration at 2 h [1]: 190 ng/mL
- concentration at 2 h [2]: 178 ng/mL
- concentration at 2 h [3]: 170 ng/mL
- concentration at 3 h [1]: 166 ng/mL
- concentration at 3 h [2]: 154 ng/mL
- concentration at 3 h [3]: 162 ng/mL
- concentration at 4 h [1]: 134 ng/mL
- concentration at 4 h [2]: 121 ng/mL
- concentration at 4 h [3]: 132 ng/mL
- concentration at 6 h [1]: 106 ng/mL
- concentration at 6 h [2]: 96.8 ng/mL
- concentration at 6 h [3]: 93.8 ng/mL
- concentration at 8 h [1]: 85.5 ng/mL
- concentration at 8 h [2]: 80.3 ng/mL
- concentration at 8 h [3]: 85 ng/mL
- concentration at 12 h [1]: 62.3 ng/mL
- concentration at 12 h [2]: 58.2 ng/mL
- concentration at 12 h [3]: 54.2 ng/mL
- concentration at 16 h [1]: 52.6 ng/mL
- concentration at 16 h [2]: 45.3 ng/mL
- concentration at 16 h [3]: 43.4 ng/mL
- concentration at 24 h [1]: 44.3 ng/mL
- concentration at 24 h [2]: 38.7 ng/mL
- concentration at 24 h [3]: 36.5 ng/mL
- concentration at 36 h [1]: 24 ng/mL
- concentration at 36 h [2]: 20.9 ng/mL
- concentration at 36 h [3]: 24.9 ng/mL
- concentration at 48 h [1]: 17.4 ng/mL
- concentration at 48 h [2]: 18.1 ng/mL
- concentration at 48 h [3]: 15.5 ng/mL
- AUC(0-t) (Normal Hepatic Function, read-out: AUC0-t, Arithmetic Mean): 2690 ng·h/mL
- AUC(0-t) (Normal Hepatic Function, read-out: AUC0-t, Geometric Mean): 2560 ng·h/mL
- AUC(0-t) (Normal Hepatic Function, read-out: AUC0-t, Median): 2780 ng·h/mL
- AUC(0-inf) (Normal Hepatic Function, read-out: AUC0-∞, Arithmetic Mean): 3180 ng·h/mL
- AUC(0-inf) (Normal Hepatic Function, read-out: AUC0-∞, Geometric Mean): 3050 ng·h/mL
- AUC(0-inf) (Normal Hepatic Function, read-out: AUC0-∞, Median): 2880 ng·h/mL
- Cmax (Normal Hepatic Function, read-out: Cmax, Arithmetic Mean): 271 ng/mL
- Cmax (Normal Hepatic Function, read-out: Cmax, Geometric Mean): 250 ng/mL
- Cmax (Normal Hepatic Function, read-out: Cmax, Median): 270 ng/mL
- Vd/F (Normal Hepatic Function, read-out: VZ/F, Arithmetic Mean): 1340 L
- Vd/F (Normal Hepatic Function, read-out: VZ/F, Geometric Mean): 1310 L
- Vd/F (Normal Hepatic Function, read-out: VZ/F, Median): 1190 L
- half-life (Normal Hepatic Function, read-out: t1/2, Arithmetic Mean (converted)): 1070 ± 516 min
- half-life (Normal Hepatic Function, read-out: t1/2, Geometric Mean (converted)): 976 min
- half-life (Normal Hepatic Function, read-out: t1/2, Median (converted)): 1020 min
- Tmax (Normal Hepatic Function, read-out: tmax, Arithmetic Mean): 2.5 h
- Tmax (Normal Hepatic Function, read-out: tmax, Geometric Mean): 2.2 h
- Tmax (Normal Hepatic Function, read-out: tmax, Median): 2 h
- concentration at 0.5 h [4]: 17.7 ng/mL
- concentration at 0.5 h [5]: 15.2 ng/mL
- concentration at 0.5 h [6]: 6.8 ng/mL
- concentration at 1 h [4]: 136 ng/mL
- concentration at 1 h [5]: 92.9 ng/mL
- concentration at 1 h [6]: 74.4 ng/mL
- concentration at 2 h [4]: 226 ng/mL
- concentration at 2 h [5]: 204 ng/mL
- concentration at 2 h [6]: 236 ng/mL
- concentration at 3 h [4]: 216 ng/mL
- concentration at 3 h [5]: 192 ng/mL
- concentration at 3 h [6]: 199 ng/mL
- concentration at 4 h [4]: 164 ng/mL
- concentration at 4 h [5]: 149 ng/mL
- concentration at 4 h [6]: 147 ng/mL
- concentration at 6 h [4]: 131 ng/mL
- concentration at 6 h [5]: 117 ng/mL
- concentration at 6 h [6]: 106 ng/mL
- concentration at 8 h [4]: 99.4 ng/mL
- concentration at 8 h [5]: 89.5 ng/mL
- concentration at 8 h [6]: 81 ng/mL
- concentration at 12 h [4]: 67.8 ng/mL
- concentration at 12 h [5]: 63.2 ng/mL
- concentration at 12 h [6]: 61.9 ng/mL
- concentration at 16 h [4]: 48.8 ng/mL
- concentration at 16 h [5]: 45.7 ng/mL
- concentration at 16 h [6]: 49.7 ng/mL
- concentration at 24 h [4]: 43.2 ng/mL
- concentration at 24 h [5]: 40.4 ng/mL
- concentration at 24 h [6]: 43 ng/mL
- concentration at 36 h [4]: 23.9 ng/mL
- concentration at 36 h [5]: 21.3 ng/mL
- concentration at 36 h [6]: 24.2 ng/mL
- concentration at 48 h [4]: 14.9 ng/mL
- concentration at 48 h [5]: 14.8 ng/mL
- concentration at 48 h [6]: 15.9 ng/mL
- exposure in mild or moderate hepatic impairment compared to normal hepatic function (same amount of rivoceranib): do not have a statistically significant difference in exposure
